Measurements reported in article PMC10683025, “Discovery of a Hydroxylamine-Based Brain-Penetrant EGFR Inhibitor for Metastatic Non-Small-Cell Lung Cancer” (Journal of Medicinal Chemistry, 2023).

Legend:
Test in all cases: KINOMEScan
Assay type in all cases: binding
LYN = target: T1, LYN (Homo sapiens, UniProt P07948); settings: read-out: Percent Control
T1 construct: purchased Eurofins DiscoverX (contract assay)
Text: (§1) Percent control was mapped onto the kinome tree using TREEspot.

ALK = target: T2, ALK (Homo sapiens, UniProt Q9UM73); settings: read-out: Percent Control
T2 construct: purchased Eurofins DiscoverX (KINOMEscan)
Text: as §1

ADCK4 = target: T3, ADCK4 (Homo sapiens, UniProt Q96D53); settings: ADCK4, 1 µM; read-out: Percent Control
T3 construct: purchased Eurofins DiscoverX (KINOMEscan)
Text: as §1

AKT1 = target: T4, AKT1 (Homo sapiens, UniProt P31749); settings: AKT1, 1 µM; read-out: Percent Control
T4 construct: purchased Eurofins DiscoverX (KINOMEscan)
T4 sequence (P31749 whole entry): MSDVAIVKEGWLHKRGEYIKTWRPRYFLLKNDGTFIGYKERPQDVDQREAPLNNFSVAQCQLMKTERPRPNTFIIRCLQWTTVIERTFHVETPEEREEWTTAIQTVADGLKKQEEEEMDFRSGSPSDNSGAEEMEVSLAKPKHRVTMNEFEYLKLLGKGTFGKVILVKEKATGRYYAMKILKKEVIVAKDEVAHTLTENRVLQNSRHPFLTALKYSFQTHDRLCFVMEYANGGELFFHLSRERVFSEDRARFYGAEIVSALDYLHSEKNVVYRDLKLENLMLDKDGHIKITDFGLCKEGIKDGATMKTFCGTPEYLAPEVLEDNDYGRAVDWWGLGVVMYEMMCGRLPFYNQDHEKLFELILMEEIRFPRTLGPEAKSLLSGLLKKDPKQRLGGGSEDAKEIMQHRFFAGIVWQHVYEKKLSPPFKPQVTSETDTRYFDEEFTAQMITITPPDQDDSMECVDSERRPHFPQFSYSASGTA
Text: as §1

T3 sequence (Q96D53 whole entry): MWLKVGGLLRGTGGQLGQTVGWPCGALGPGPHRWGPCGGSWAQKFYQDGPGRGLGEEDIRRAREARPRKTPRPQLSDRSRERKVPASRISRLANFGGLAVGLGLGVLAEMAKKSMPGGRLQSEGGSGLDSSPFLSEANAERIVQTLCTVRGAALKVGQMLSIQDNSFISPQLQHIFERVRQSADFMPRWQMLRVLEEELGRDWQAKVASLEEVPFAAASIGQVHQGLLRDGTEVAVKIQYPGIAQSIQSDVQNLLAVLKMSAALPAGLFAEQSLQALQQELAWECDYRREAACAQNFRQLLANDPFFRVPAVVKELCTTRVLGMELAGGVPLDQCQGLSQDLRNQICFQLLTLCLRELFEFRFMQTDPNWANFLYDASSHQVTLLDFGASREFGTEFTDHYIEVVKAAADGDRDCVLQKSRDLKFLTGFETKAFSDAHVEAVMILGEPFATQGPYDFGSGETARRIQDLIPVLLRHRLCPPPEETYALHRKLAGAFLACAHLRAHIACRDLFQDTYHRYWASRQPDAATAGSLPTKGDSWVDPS
T2 sequence (Q9UM73 19-1620): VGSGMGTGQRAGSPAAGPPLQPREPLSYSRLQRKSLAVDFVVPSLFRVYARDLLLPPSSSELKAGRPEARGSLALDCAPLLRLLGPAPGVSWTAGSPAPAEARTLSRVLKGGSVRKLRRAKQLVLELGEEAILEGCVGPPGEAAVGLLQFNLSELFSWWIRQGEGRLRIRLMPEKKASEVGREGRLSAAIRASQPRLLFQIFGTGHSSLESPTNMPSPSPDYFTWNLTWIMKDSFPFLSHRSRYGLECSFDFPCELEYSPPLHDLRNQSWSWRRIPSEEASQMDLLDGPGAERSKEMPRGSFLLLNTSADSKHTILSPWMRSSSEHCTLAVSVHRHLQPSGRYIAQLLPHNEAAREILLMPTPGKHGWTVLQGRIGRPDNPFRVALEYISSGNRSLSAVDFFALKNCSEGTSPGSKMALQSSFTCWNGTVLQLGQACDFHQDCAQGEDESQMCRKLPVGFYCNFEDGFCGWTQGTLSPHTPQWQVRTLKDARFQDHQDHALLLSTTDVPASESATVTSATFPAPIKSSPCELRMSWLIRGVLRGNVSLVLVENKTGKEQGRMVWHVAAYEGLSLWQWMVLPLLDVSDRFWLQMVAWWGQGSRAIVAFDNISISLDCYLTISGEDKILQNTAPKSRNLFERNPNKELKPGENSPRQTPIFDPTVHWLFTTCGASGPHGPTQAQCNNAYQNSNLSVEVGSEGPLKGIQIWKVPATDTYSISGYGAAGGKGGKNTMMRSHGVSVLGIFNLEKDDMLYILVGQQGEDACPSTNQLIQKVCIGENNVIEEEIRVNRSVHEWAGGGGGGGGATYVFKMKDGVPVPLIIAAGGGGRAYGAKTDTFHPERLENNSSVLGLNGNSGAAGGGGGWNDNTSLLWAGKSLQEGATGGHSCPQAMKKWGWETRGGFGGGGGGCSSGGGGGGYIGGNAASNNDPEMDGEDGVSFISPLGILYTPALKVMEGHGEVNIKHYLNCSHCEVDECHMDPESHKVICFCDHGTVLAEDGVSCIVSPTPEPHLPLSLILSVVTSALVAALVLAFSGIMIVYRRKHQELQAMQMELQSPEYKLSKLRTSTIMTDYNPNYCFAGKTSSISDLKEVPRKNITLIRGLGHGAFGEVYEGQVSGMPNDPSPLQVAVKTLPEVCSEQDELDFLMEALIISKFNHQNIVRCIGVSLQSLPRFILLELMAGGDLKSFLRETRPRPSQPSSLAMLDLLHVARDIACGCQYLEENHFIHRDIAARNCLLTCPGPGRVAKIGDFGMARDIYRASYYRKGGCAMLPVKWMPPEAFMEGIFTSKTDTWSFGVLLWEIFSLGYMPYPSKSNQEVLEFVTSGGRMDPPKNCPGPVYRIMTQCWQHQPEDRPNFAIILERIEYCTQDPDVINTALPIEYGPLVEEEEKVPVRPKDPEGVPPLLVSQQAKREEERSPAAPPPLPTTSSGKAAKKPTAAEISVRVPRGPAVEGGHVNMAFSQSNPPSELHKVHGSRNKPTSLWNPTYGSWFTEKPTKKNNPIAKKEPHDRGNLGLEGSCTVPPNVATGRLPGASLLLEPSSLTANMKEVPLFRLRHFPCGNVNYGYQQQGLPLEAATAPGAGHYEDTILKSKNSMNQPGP
T1 sequence (P07948 whole entry): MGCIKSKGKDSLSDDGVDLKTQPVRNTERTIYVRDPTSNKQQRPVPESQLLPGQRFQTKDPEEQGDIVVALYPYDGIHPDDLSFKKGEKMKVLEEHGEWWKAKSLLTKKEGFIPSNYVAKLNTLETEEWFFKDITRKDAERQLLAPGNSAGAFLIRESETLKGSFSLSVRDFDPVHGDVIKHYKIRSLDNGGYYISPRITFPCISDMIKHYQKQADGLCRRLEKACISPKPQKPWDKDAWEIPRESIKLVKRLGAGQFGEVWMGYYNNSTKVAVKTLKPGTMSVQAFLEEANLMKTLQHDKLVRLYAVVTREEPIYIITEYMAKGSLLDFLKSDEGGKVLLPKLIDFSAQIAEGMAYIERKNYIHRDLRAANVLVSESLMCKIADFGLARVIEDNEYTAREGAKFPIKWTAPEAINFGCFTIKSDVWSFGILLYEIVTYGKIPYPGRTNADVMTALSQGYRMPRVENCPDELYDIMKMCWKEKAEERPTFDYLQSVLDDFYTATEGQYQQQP

SMILES: COc1cc2ncnc(Nc3cccc(Cl)c3F)c2cc1OCCON1CCN(C)CC1 [Compound 9, N-(3-Chloro-2-fluorophenyl)-7-methoxy-6-(2-((4-methylpiperazin-1-yl)oxy)ethoxy)quinazolin-4-amine]
- remaining binding at 1 µM (LYN): 7.4%
- remaining binding at 1 µM (ALK): 89%
- remaining binding at 1 µM (ADCK4): 79%
- remaining binding at 1 µM (AKT1): 100%
